Values quoted from earlier work as cited in patent US4039519A, “Broad spectrum antibiotics and method” (Chimie & Biologie, priority 1975, dated 1977).

Settings: oral administration; cited from earlier work

colistine
passage of the gastro-intestinal barrier (known): cannot pass the gastro-intestinal barrier
